We go through two molecules from article PMC9007462 (Journal of Medicinal Chemistry, 2022).

Common to all, as to type: biochemical
Assay [1] concerns the target T1, Human ALDH1A1 (Homo sapiens, UniProt P00352).
T1 construct: made in house
T1 sequence (P00352 1-501): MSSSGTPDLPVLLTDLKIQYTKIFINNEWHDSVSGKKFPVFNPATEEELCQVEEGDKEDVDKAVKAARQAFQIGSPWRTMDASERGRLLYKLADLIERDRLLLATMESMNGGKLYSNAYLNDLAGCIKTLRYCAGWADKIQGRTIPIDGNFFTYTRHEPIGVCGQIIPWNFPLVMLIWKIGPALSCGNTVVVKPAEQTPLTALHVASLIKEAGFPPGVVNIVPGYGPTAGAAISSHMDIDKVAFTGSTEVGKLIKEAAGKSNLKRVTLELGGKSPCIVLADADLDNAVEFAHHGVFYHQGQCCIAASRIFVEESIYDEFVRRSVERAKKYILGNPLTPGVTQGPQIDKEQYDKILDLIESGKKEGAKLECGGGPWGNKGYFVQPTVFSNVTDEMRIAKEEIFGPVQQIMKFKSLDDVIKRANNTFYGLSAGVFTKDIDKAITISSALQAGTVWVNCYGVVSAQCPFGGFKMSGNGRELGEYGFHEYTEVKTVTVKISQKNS
In words: Inhibition screening, single point at 10 μM, ALDH1A1. Conditions: 10 μM compound; 5 μM hexanal (Figure S1). As to the method:
(§1) Human ALDH1A1, ALDH1A3, and ALDH3A1 were cloned and recombinantly expressed from the pET-30 Xa/LIC vector. Protein purification was achieved by affinity chromatography on a nickel-charged chelating Sepharose Fast Flow 5-mL column (His Trap column, Cytiva), which specifically binds the protein due to its N-terminal (His)6 tag, using an ÄKTA FPLC system (Cytiva), as previously described.[55] Enzymes including the His tag were stored at −80 °C in 20 mM Tris/HCl and 0.5 M NaCl, pH 8.0, until use. Reaction buffers were as follows: ALDH1A1 was assayed in 50 mM HEPES, 0.5 mM EDTA, and 0.5 mM DTT, pH 8.0; ALDH1A3 was assayed in 50 mM HEPES, 30 mM MgCl2, and 5 mM DTT, pH 8.0; and ALDH3A1 was assayed in 50 mM Tris–HCl and 5 mM DTT, pH 8.0. Activity under standard conditions was measured fluorimetrically at 25 °C using a Cary Eclipse (Varian) fluorimeter to follow the purification procedure and to check the enzyme concentration before each kinetic experiment. The fluorescence of NADH was characterized at 460 nm with excitation at 340 nm, and 5 μM NAD(P)H was added as an internal standard to obtain the absolute reaction rates.[55] Standard activity was measured at saturating concentrations of substrate using 30 μM hexanal (ALDH1A1), 250 μM hexanal (ALDH1A3), or 250 μM 4-NBA (ALDH3A1). NAD^+ was 500 μM for ALDH1A1 and ALDH1A3, and NADP^+ was 1 mM for ALDH3A1.
All compounds tested were dissolved in DMSO and assayed at a final concentration of 1% (v/v) DMSO. […] For the initial screening, the enzymatic activity was measured in 96-well plates (final volume of 200 μL) in a Victor 3 Multilabel Plate Reader (Perkin Elmer), by monitoring the fluorescence of the NAD(P)H produced during the reaction (excitation at 340 nm and emission at 460 nm). Alternatively, the enzymatic activity was measured in a Varian Cary 400 UV–vis spectrophotometer, by monitoring the increase in the absorbance of NAD(P)H at 340 nm (ε = 6.22 mM^–1·cm^–1) or in a Cary Eclipse Varian fluorimeter, as described above. […] For ALDH1A1, 5 μM hexanal (Sigma) was used. For ALDH1A3, 10 and 250 μM hexanal (Sigma) were used. For ALDH3A1, 4-NBA (Sigma) was used at 31 and 250 μM. All substrates were prepared in the corresponding assay buffer at a concentration of 2 mM and further diluted to reach the final concentrations required per experiment. The concentration of the enzyme was kept from 50- to 100-fold lower than that of the substrate for all enzymatic assays.

The target of assay [2] is T1, Human ALDH1A1. The assay can be described thus: ALDH1A1 inhibition, IC50 determination. The protocol:
as §1
In order to determine the IC50 values, reaction rates were determined at various concentrations of inhibitor at a fixed concentration of substrate. As substrates for ALDH1A1, ALDH1A3, and ALDH3A1, 5 μM hexanal, 6 μM hexanal, and 31 μM 4-NBA, respectively, were used. The IC50 values were calculated by nonlinear fitting of the obtained data to a sigmoidal plot using GraFit 5.0 (Erithacus software), with the following 4-parameter equation [drawing 2] , where y is the specific activity, x is the inhibitor concentration, background is the minimum y value, range is the fitted uninhibited value minus the background, and s is the slope factor. Values are expressed as the mean ± SE.

In assay [3] the target is T1, Human ALDH1A1. The assay can be described thus: DEAB analogues as substrates of ALDH1A1. Particulars: 10 μM compound as substrate, relative to activity with 10 μM hexanal (Figure S2). The protocol: as §1
According to their structure with a carbonyl group, compounds were tested for their substrate properties against ALDH1A1, ALDH1A3, and ALDH3A1. […] Results are expressed as the percentage of activity at 10 μM versus the activity at 10 μM of their standard substrate (hexanal or 4-NBA). Values are expressed as the mean ± SE.

Turning to `CCCN(CCC)c1ccc(C=O)cc1Br` [Compound 14, 3-Bromo-4-(dipropylamino)benzaldehyde], the “remaining ALDH1A1 activity” value on Human ALDH1A1 [1] is 45%. The IC50 on Human ALDH1A1 [2] (5 μM hexanal as substrate, mean ± SE) stood at 7.08 ± 0.7 µM. In addition, the “fold less effective than DEAB in inhibiting ALDH1A1” value on Human ALDH1A1 [2] (ratio of IC50 values vs DEAB) was “approximately 15 fold”.

`CCCN(CCC)c1ccc(C=O)cc1[N+](=O)[O-]` [Compound 18, 4-(Dipropylamino)-3-Nitrobenzaldehyde] displayed an ALDH1A1 substrate activity on Human ALDH1A1 [3] of 17%.

For orientation: IC50 means the concentration needed to halve the response being measured.
